“Also recorded” adds a separate entry of the source. Like-named read-outs stand apart in the source and are kept apart here.

Assay [1] relates to coenzyme-binding glucose dehydrogenase. In words: Substrate specificity and Km value, Enzymatic activity measurement method 1. The class given is biochemical, Aspergillus terreus. How it is done: Employing each of D-glucose and other substrates (each at 333 mM as a final concentration, except for D-cellobiose at 193 mM, D-trehalose and D-raffinose at 121 mM), the enzymatic activity of this enzyme was measured by the Enzymatic activity measurement method 1. The activity on each substrate is represented as a relative value to the activity of this enzyme on D-glucose being regarded as 100%, and shown in Table 1.
Similarly, the relative reactivities (enzymatic activity) on D-glucose and maltose each at two final concentrations, i.e. 550 mM and 100 mM, were measured. The results are represented as relative values based on the value on D-glucose.

Assay [2] has the same test system. Put plainly: Inhibitor test, additives added to Enzymatic activity measurement method 1. It counts as biochemical, Aspergillus terreus.
Setting [3] is: substrate 333 mM final, activity on D-glucose = 100%.
Where [4] appears, read: additive 1 mM final concentration.
[5] abbreviates: substrate 121 mM final, activity on D-glucose = 100%.

As for `O=P(O)(O)O[C@H]1O[C@H](CO)[C@@H](O)[C@H](O)[C@H]1O` [D-Glucose-1-phosphate], the “Relative activity (%)” value in assay [1] (setting [3]) is listed as 0.1> %. The “Activity of the enzyme on the substrate (in words)” value (“Activity of the enzyme” for short) in assay [1] (summary of Tables 1 and 2) is given as “Almost no activity; also recorded: almost no effect”.

As for `OC[C@@H](O)[C@@H](O)[C@H](O)[C@@H](O)CO` [D-Sorbitol], the “Relative activity (%)” value in assay [1] (setting [3]) was 0.1> %. In assay [1] (summary of Tables 1 and 2), the “Activity of the enzyme” value is listed as “Almost no activity; also recorded: almost no effect”.

In the case of `O=C[C@H](O)[C@@H](O)[C@@H](O)[C@H](O)CO` [D-Galactose], the “Relative activity (%)” value in assay [1] (setting [3]) amounted to 1.2%. Moreover, the “Activity of the enzyme” value in assay [1] (summary of Tables 1 and 2) was “lower activity; also recorded: weakly”.

Consider `O=C(O)c1ccccc1` [Benzoic acid], for which the “Inhibition (%)” value in assay [2] is 0%.

`O=C(O)[C@@H](O)[C@H](O)C(=O)O` [D-Tartaric acid]: the “Inhibition (%)” value in assay [2] (setting [4]) is reported as 8.5%.

For the molecule `NN=C(N)N.O=S(=O)(O)O` [Aminoguanidine sulfate], in assay [2], the “Inhibition (%)” value came out at 1.1%.

For `OO` [H2O2], in assay [2], the “Inhibition (%)” value came out at 1.7%.

As for `O=[N+]([O-])[O-].[Ag+]` [AgNO3], in assay [2], the “Inhibition (%)” value is 99.4% and the “Inhibitory effect (in words)” value is “highest; also recorded: inhibited potently”.

As for `N[C@@H]1CON=C1O` [Cycloserine], the “Inhibition (%)” value in assay [2] (setting [4]) was 3.6%.

As to `O=C[C@H](O)[C@@H](O)[C@@H](O)CO` [L-Arabinose], the “Relative activity (%)” value in assay [1] (setting [3]) is reported as 0.1> %. The “Activity of the enzyme” value in assay [1] (summary of Tables 1 and 2) is listed as “Almost no activity; also recorded: almost no effect”.

Take `O=C(O)CN(CCN(CC(=O)O)CC(=O)O)CC(=O)O` [EDTA]: in assay [2], the “Inhibition (%)” value is given as 0.4%.

Turning to `O=S(=O)([O-])c1cc(O)c(O)c(S(=O)(=O)[O-])c1.[Na+].[Na+]` [Tirone], the “Inhibition (%)” value in assay [2] was found to be 2.5%.

As to `OC[C@H]1O[C@H](O[C@H]2O[C@H](CO)[C@@H](O)[C@H](O)[C@H]2O)[C@H](O)[C@@H](O)[C@@H]1O` [D-Trehalose], the “Relative activity (%)” value in assay [1] (setting [5]) is reported as 1.7%. Moreover, the “Activity of the enzyme” value in assay [1] (summary of Tables 1 and 2) is listed as “lower activity; also recorded: weakly”.

For the molecule `[Cl][Al]([Cl])[Cl]` [AlCl3], in assay [2], the “Inhibition (%)” value was 0%.

For `O=C(O)CI` [Iodoacetic acid], the “Inhibition (%)” value in assay [2] was found to be 9.5%.

In the case of `[Cl][Fe]([Cl])[Cl]` [FeCl3], the “Inhibition (%)” value in assay [2] was 25.0%.

Consider `[Cl][Hg][Cl]` [HgCl2], for which the “Inhibition (%)” value in assay [2] (setting [4]) is 100%. The “Inhibitory effect (in words)” value in assay [2] (additive 1 mM final concentration, listed as Hg^2+) is recorded as “highest; also recorded: inhibited potently”.

As for `O=C(CO)[C@@H](O)[C@H](O)[C@H](O)CO` [D-Fructose], the “Relative activity (%)” value in assay [1] (setting [3]) was found to be 0.86%. In addition, the “Activity of the enzyme” value in assay [1] (summary of Tables 1 and 2) is recorded as “lower activity; also recorded: weakly”.

With `[Cl][Pb][Cl]` [PbCl2], in assay [2], the “Inhibition (%)” value is 2.7%.

As for `Nc1ccc2cc3ccc(N)cc3nc2c1` [Proflavin], the “Inhibition (%)” value in assay [2] (setting [4]) worked out at 62.0%.

Consider `C[C@H](O)[C@H](O)[C@@H](O)[C@@H](O)C=O` [L-Rhamnose], for which the “Relative activity (%)” value in assay [1] (setting [3]) is 0.1> %. In assay [1] (summary of Tables 1 and 2), the “Activity of the enzyme” value is on record as “Almost no activity; also recorded: almost no effect”.

Consider `[Cl][Cd][Cl]` [CdCl2], for which the “Inhibition (%)” value in assay [2] was 0.8%.

As for `O=C(O)CC(O)C(=O)O` (stereo not drawn) [Malic acid], the “Inhibition (%)” value in assay [2] (setting [4]) is 8.1%.

Regarding `[Cl-].[Cl-].[Mg+2]` [MgCl2], the “Inhibition (%)” value in assay [2] was determined as 2.8%.

For orientation: Km means the concentration of substrate that gives half-maximal velocity. As to `O=C[C@H](O)[C@@H](O)[C@H](O)[C@H](O)CO` [D-Glucose], in assay [1], the Km is 49.7 mM. Besides, the “Relative activity (%)” value is 100% in assay [1] (setting [3]); 100% in assay [1] (substrate final conc. 100 mM, D-glucose = 100%); 100% in assay [1] (substrate final conc. 550 mM, D-glucose = 100%). Further, the “Activity of the enzyme” value in assay [1] (summary of Tables 1 and 2) is “higher activity; also recorded: potently”.

For the molecule `CCN1C(=O)C=CC1=O` [N-Ethylmaleimide], the “Inhibition (%)” value in assay [2] (setting [4]) is 1.8%.

`[Cl-].[Li+]` [LiCl]: in assay [2] (setting [4]), the “Inhibition (%)” value is recorded as 0.9%.

For `[Cl][Cu][Cl]` [CuCl2], in assay [2], the “Inhibition (%)” value is on record as 100% and the “Inhibitory effect (in words)” value is “highest; also recorded: inhibited potently”.

For `CC(O)C(=O)O.CCOc1ccc2nc3cc(N)ccc3c(N)c2c1` [Acrinol], the “Inhibition (%)” value in assay [2] (setting [4]) is listed as 29.0%.

Take `OC[C@H]1O[C@H](OC[C@H]2O[C@H](O[C@]3(CO)O[C@H](CO)[C@@H](O)[C@@H]3O)[C@H](O)[C@@H](O)[C@@H]2O)[C@H](O)[C@@H](O)[C@H]1O` [D-Raffinose]: the “Relative activity (%)” value in assay [1] (setting [5]) is 0.1> %. Besides, in assay [1] (summary of Tables 1 and 2), the “Activity of the enzyme” value is “Almost no activity; also recorded: almost no effect”.

Consider `O=C[C@@H](O)[C@@H](O)[C@H](O)[C@H](O)CO` [D-Mannose], for which the “Relative activity (%)” value in assay [1] (setting [3]) worked out at 2.8%. Further, in assay [1] (summary of Tables 1 and 2), the “Activity of the enzyme” value is given as “lower activity; also recorded: weakly”.

As for `OCC(O)CO` [Glycerol], the “Relative activity (%)” value in assay [1] (setting [3]) is reported as 0.1> %. In addition, the “Activity of the enzyme” value in assay [1] (summary of Tables 1 and 2) is listed as “Almost no activity; also recorded: almost no effect”.

With TritonX-100, in assay [2] (setting [4]), the “Inhibition (%)” value is given as 6.2%.

For `Oc1cccc2cccnc12` [8-Quinolinol], in assay [2], the “Inhibition (%)” value is recorded as 13.9%.

With `CCN(CC)CCCC(C)Nc1c2ccc(Cl)cc2nc2ccc(OC)cc12` (stereo not drawn) [Quinacrine], the “Inhibition (%)” value in assay [2] (setting [4]) came out at 5.0%.

In the case of `CC(C)(S)C(N)C(=O)O` (racemic) [DL-Penicillamine], the “Inhibition (%)” value in assay [2] (setting [4]) is 4.3%.

Turning to `NCCS` [Cysteamine], the “Inhibition (%)” value in assay [2] (setting [4]) stood at 9.8%.

As for `OC[C@@H](O)[C@@H](O)[C@H](O)[C@H](O)CO` [D-Mannitol], in assay [1] (setting [3]), the “Relative activity (%)” value was 0.1> %. Moreover, the “Activity of the enzyme” value in assay [1] (summary of Tables 1 and 2) is recorded as “Almost no activity; also recorded: almost no effect”.

As to `[N-]=[N+]=[N-].[Na+]` [NaN3], the “Inhibition (%)” value in assay [2] is listed as 0%.

For the molecule `O=CC[C@@H](O)[C@H](O)[C@H](O)CO` [2-Deoxy-D-glucose], the “Relative activity (%)” value in assay [1] (setting [3]) was 48%.

As for `[Cl][Sn][Cl]` [SnCl2], in assay [2], the “Inhibition (%)” value was determined as 45.5%.

With `[Cl-].[Na+]` [NaCl], the “Inhibition (%)” value in assay [2] came to 2.5%.

Consider `O=C(O)[C@H](O)[C@@H](O)[C@H](O)[C@H](O)CO` [Gluconic acid], for which, in assay [1], the “Activity of the enzyme” value is “Almost no activity; also recorded: almost no effect” and the “Relative activity (%)” value is recorded as 0.1> %.

With `NC(N)=O` [Urea], the “Inhibition (%)” value in assay [2] (setting [4]) worked out at 1.9%.

Take `[Cl-].[Cl-].[Zn+2]` [ZnCl2]: in assay [2], the “Inhibition (%)” value is 0%.

Take `O=C(O)CC(O)(CC(=O)O)C(=O)O` [Citric acid]: the “Inhibition (%)” value in assay [2] (setting [4]) came out at 5.6%.

For `[Cl][Ni][Cl]` [NiCl2], the “Inhibition (%)” value in assay [2] is recorded as 16.5%.

In the case of `c1ccc(-c2ccccn2)nc1` [2,2′-Bipyridine], the “Inhibition (%)” value in assay [2] (setting [4]) turned out to be 10.8%.

For CoCl2, the “Inhibition (%)” value in assay [2] is 7.0%.

Regarding `O=C(O)C(O)C(O)C(=O)O` (stereo not drawn) [Meso-tartaric acid], the “Inhibition (%)” value in assay [2] (setting [4]) was 5.6%.

On to Acriflavine, for which, in assay [2] (setting [4]), the “Inhibition (%)” value is 49.0%.

With `O=C(O)/C=C\C(=O)O` [Maleic acid], the “Inhibition (%)” value in assay [2] (setting [4]) worked out at 26.2%.

Take `[Ca+2].[Cl-].[Cl-]` [CaCl2]: the “Inhibition (%)” value in assay [2] turned out to be 5.7%.

In the case of `O=C(O)c1ccccc1[N+](=O)[O-]` [2-Nitrobenzoic acid], in assay [2] (setting [4]), the “Inhibition (%)” value is listed as 44.3%.

`O=C(O)/C=C/C(=O)O` [Fumaric acid]: the “Inhibition (%)” value in assay [2] (setting [4]) is reported as 3.4%.

Regarding `[Ba+2].[Cl-].[Cl-]` [BaCl2], the “Inhibition (%)” value in assay [2] (setting [4]) was determined as 2.6%.

These data come from patent publication US11225645B2 (priority 2002, dated 2022).
